Reference: publication PMC12298648, “An Evaluation of the Cytotoxicity and Safety Profile of Usnic Acid for a Broad Panel of Human Cancers and Normal Cells with Respect to Its Enantiospecificity” (Molecules, 2025)
Values after ≈ are worked out from the molar mass of the structure shown. Read-outs that look alike come from different tables or passages of the source.

How the values were obtained:
DU145 cells = settings: cited from earlier work
MDA-MB-231 = test: MTT viability assay, MDA-MB-231 breast cancer cells; format: cell-based, human; settings: for IC50: Homo sapiens; for Cell viability: MDA-MB-231, 24 h
Source text: (§1) Cell lines of different origins were used in the study and grouped as follows: prostate panel (human prostate carcinomas: DU145, derived from metastatic site: brain; grade IV PC3, derived from metastatic site: bone; LNCaP, derived from the metastatic site: lymph node; prostate epithelial, PNT2), colon panel (colorectal adenocarcinomas: HT29, originating from a primary tumor; Duke’s type C DLD-1, with the potential to lymph node metastasis; highly metastatic HCT116; colon epithelial cells CCD 841 CoN), thyroid panel (follicular thyroid carcinoma FTC133, anaplastic thyroid carcinoma 8505C, papillary thyroid carcinoma TPC-1, normal thyroid follicular epithelial Nthy-ori 3–1), breast panel (ER-positive breast adenocarcinoma MCF7, ER-negative breast adenocarcinoma MDA-MB-231, breast epithelial MCF10A), brain panel (neuroblastoma SH-SY5Y, glioblastoma U-87 MG, murine astrocytes C8D1A). All cell lines were purchased from Merck (Darmstadt, Germany).
(§2) Cells were grown under standard conditions (37 °C, 5% CO2) and culture media (DMEM/F12 for PNT2, PC3, FTC133, 8505 C, MDA-MB-231, TPC-1; DMEM Low Glucose for DU145; DMEM High Glucose for HCT116, DLD-1, SH-SY5Y, U87MG, C8D1A; MEM with NEAA for MCF7; MEM for CCD 841 CoN; McCoy’s for HT29; RPMI1640 with sodium pyruvate for LNCaP; DMEM/F12 with 20 ng/mL epidermal growth factor (EGF), 10 μg/mL insulin, 0.5 μg/mL hydrocortisone, 100 ng/mL cholera toxin) for MCF10A), supplemented with 10% fetal bovine serum (FBS) or 5% donor horse serum for MCF10A, and 1% antibiotics solution (10,000 U penicillin and 10 mg streptomycin/mL). The tested substances were prepared as 10 mg/mL stock solutions in DMSO and further diluted in the culture media to the working concentrations. Cells were treated with UA enantiomers at the concentration range of 0–50 µg/mL. The influence of DMSO on cell viability was also examined, with the final concentration […], and no toxic effect was noted.
(§3) The cells were seeded onto 96-well plates at a density of 1.5 × 10^4 cells/well. After 24 h UA enantiomers were added. Cell viability was determined after 24, 48, and 72 h by the MTT assay, as described previously. Doxorubicin was used as a reference cytostatic drug. All analyses were performed in triplicate; cell viability was expressed as % of control, untreated cells (mean ± SD), and IC50 values (concentration at which cell viability is inhibited by 50%), if possible.
(§4) The selectivity index (SI) was calculated, if possible, by dividing the IC50 value obtained for non-cancerous cells line by the IC50 values obtained for appropriate cancer cell line, as described previously. […] The values above 3 indicate good selectivity.

SH-SY5Y = test: MTT viability assay, neuroblastoma SH-SY5Y cells; format: cell-based, human; settings: SHSY5Y, 24 h
Source text: as §1, §2, §3

U87MG = test: MTT viability assay, glioblastoma U87MG cells; format: cell-based, human; settings: 24 h
Source text: as §1, §2, §3

C8D1A = test: MTT viability assay, normal astrocytes C8D1A; format: cell-based, murine; settings: C8D1A, 24 h
Source text: as §1, §2, §3

CCD 841 CoN = test: MTT viability assay, normal colon epithelial cells; format: cell-based, human; settings: for Cell viability: CCD 841 CoN, 24 h; for IC50: Homo sapiens, CCD-841CoN
Source text: as §1, §2, §3

PC3 = test: MTT viability assay, PC3 prostate cancer cells; format: cell-based, human; settings: for IC50: Homo sapiens, PC-3; for Cell viability: PC3, 24 h
Source text: as §1, §2, §3, §4

glioblastoma U251 cells = system: glioblastoma U251 cells; set-up: method as in PMID 18558490; settings: U251, 72 h, cited from earlier work
WM793 cells = system: WM793 cells; set-up: method as in PMID 34577645; settings: WM793, 48 h; cited from earlier work
HepG2 cells = system: HepG2 cells; set-up: method as in PMID 40368021; settings: cited from earlier work
LNCaP = test: MTT viability assay, LNCaP prostate cancer cells; format: cell-based, human; settings: for Cell viability: 24 h; for IC50: Homo sapiens
Source text: as §1, §2, §3

SMILES: CC(=O)C1=C(O)C=C2Oc3c(C(C)=O)c(O)c(C)c(O)c3[C@@]2(C)C1=O [UA(+), (+)-usnic acid]
- IC50 (DU145 cells; DU145, 48 h, recalculated from µM by the authors): 14.5 µg/mL
- IC50 (DU145 cells; DU145, 48 h, read-out: IC50): 42.1 µM
- IC50 (DU145 cells; DU145, 72 h, recalculated from µM by the authors): 19.7 µg/mL
- IC50 (DU145 cells; DU145, 72 h, read-out: IC50): 57.4 µM
- IC50 (MDA-MB-231; MDA-MB-231, 48 h): > 50 µg/mL
- IC50 (MDA-MB-231; MDA-MB-231, 72 h): 15.8 µg/mL (≈ 45.9 µM)
- selectivity index (SI) (MDA-MB-231; IC50 MCF10A / IC50 MDA-MB-231, 72 h): 2.83
- Cell viability (MDA-MB-231; 2.5 µg/mL): 100.36 % of control
- Cell viability (MDA-MB-231; 5 µg/mL): 95.55 % of control
- Cell viability (MDA-MB-231; 10 µg/mL): 87.62 % of control
- Cell viability (MDA-MB-231; 20 µg/mL): 81.99 % of control
- Cell viability (MDA-MB-231; 30 µg/mL): 77.62 % of control
- Cell viability (MDA-MB-231; 40 µg/mL): 67.93 % of control
- Cell viability (MDA-MB-231; 50 µg/mL): 69.24 % of control
- Cell viability (SH-SY5Y; 2.5 µg/mL): 99.49 % of control
- Cell viability (SH-SY5Y; 5 µg/mL): 97.56 % of control
- Cell viability (SH-SY5Y; 10 µg/mL): 97.95 % of control
- Cell viability (SH-SY5Y; 20 µg/mL): 96.15 % of control
- Cell viability (SH-SY5Y; 30 µg/mL): 95.77 % of control
- Cell viability (SH-SY5Y; 40 µg/mL): 92.95 % of control
- Cell viability (SH-SY5Y; 50 µg/mL): 96.54 % of control
- Cell viability (U87MG; 5 µg/mL): 99.21 % of control
- Cell viability (U87MG; 10 µg/mL): 98.61 % of control
- Cell viability (U87MG; 30 µg/mL): 101.76 % of control
- Cell viability (U87MG; 40 µg/mL): 92.73 % of control
- Cell viability (U87MG; 50 µg/mL): 95.00 % of control
- Cell viability (C8D1A; 2.5 µg/mL): 110.33 % of control
- Cell viability (C8D1A; 5 µg/mL): 110.17 % of control
- Cell viability (C8D1A; 10 µg/mL): 96.58 % of control
- Cell viability (C8D1A; 20 µg/mL): 91.17 % of control
- Cell viability (C8D1A; 30 µg/mL): 88.67 % of control
- Cell viability (C8D1A; 40 µg/mL): 86.17 % of control
- Cell viability (C8D1A; 50 µg/mL): 106.42 % of control
- Cell viability (CCD 841 CoN; 2.5 µg/mL): 104.22 % of control
- Cell viability (CCD 841 CoN; 5 µg/mL): 103.61 % of control
- Cell viability (CCD 841 CoN; 10 µg/mL): 99.72 % of control
- Cell viability (CCD 841 CoN; 20 µg/mL): 111.77 % of control
- Cell viability (CCD 841 CoN; 30 µg/mL): 101.26 % of control
- Cell viability (CCD 841 CoN; 40 µg/mL): 95.35 % of control
- Cell viability (CCD 841 CoN; 50 µg/mL): 96.52 % of control
- IC50 (CCD 841 CoN; 48 h): > 50 µg/mL
- IC50 (CCD 841 CoN; 72 h): > 50 µg/mL
- IC50 (PC3; PC3, 48 h): 39.6 µg/mL (≈ 115 µM)
- IC50 (PC3; PC3, 72 h): 19.1 µg/mL (≈ 55.5 µM)
- selectivity index (SI) (PC3; IC50 PNT2 / IC50 PC3, 48 h): 0.94
- selectivity index (SI) (PC3; IC50 PNT2 / IC50 PC3, 72 h): 1.07
- Cell viability (PC3; 2.5 µg/mL): 100.80 % of control
- Cell viability (PC3; 5 µg/mL): 99.30 % of control
- Cell viability (PC3; 10 µg/mL): 104.63 % of control
- Cell viability (PC3; 20 µg/mL): 96.62 % of control
- Cell viability (PC3; 30 µg/mL): 83.08 % of control
- Cell viability (PC3; 40 µg/mL): 70.10 % of control
- Cell viability (PC3; 50 µg/mL): 64.83 % of control
- IC50 (glioblastoma U251 cells; recalculated from µM by the authors): 6.7 µg/mL
- IC50 (glioblastoma U251 cells; read-out: IC50): 19.5 µM
- IC50 (WM793 cells): 30.05 µg/mL (≈ 87.3 µM)
- IC50 (hepatotoxicity) (HepG2 cells; HepG2, 48 h): 28.2 µg/mL (≈ 81.9 µM)
- IC50 (hepatotoxicity) (HepG2 cells; HepG2, 72 h): 24.4 µg/mL (≈ 70.9 µM)
- Cell viability (LNCaP; 2.5 µg/mL): 87.68 % of control
- Cell viability (LNCaP; 5 µg/mL): 81.45 % of control
- Cell viability (LNCaP; 10 µg/mL): 79.71 % of control
- Cell viability (LNCaP; 20 µg/mL): 75.51 % of control
- Cell viability (LNCaP; 30 µg/mL): 71.45 % of control
- Cell viability (LNCaP; 40 µg/mL): 69.13 % of control
- Cell viability (LNCaP; 50 µg/mL): 69.71 % of control
- IC50 (LNCaP; 48 h): > 50 µg/mL
- IC50 (LNCaP; 72 h): > 50 µg/mL
